# Laboratory results: US20220015355A1, “NOVEL CARRIER FLUIDS FOR LIQUID FUNGAL SPORE FORMULATIONS” (priority 2018, published 2022)
# Like-named read-outs stand apart in the source and are kept apart here.
# What was measured:
# [1] = tested on: P. lilacinum strain 251 spores; assay: spore viability (germination rate on agar) of P. lilacinum spores in carrier fluid after storage at 30° C.; assay type: cell-based, Purpureocillium lilacinum
# Description: (§1) 3 g of P. lilacinum strain 251 pure spore powder were transferred into a formulation vessel (IKA Type DT-20 mixing vessel with dispersion tool for Ultra Turrax) using a sterile spoon. 12 mL of fluid were added into the respective formulation vessel and dispersed using ultra turrax tube drive control for 1 min at 3000 rpm; change direction after 30 sec. After this 2.8 mL were transferred in four sample bottles (Wheaton Serum vial, Type I) leaving little headspace and closed tight using crimpneck caps (Macherey—Nagel type N 13) Afterwards all sample bottles were transferred to an incubator set at 30° C. and stored for a given time.
# (§2) In regular intervals a sample was retrieved from the storage location and analyzed for spore viability. Therefore the original samples were thoroughly homogenized. Aliquots of 0.25 g or […] of each sample are transferred into 50 mL falcon tubes. The tubes were filled up to 25 g using a sterile aqueous solution containing 2% Tween 80 and homogenized by vortexing to achieve the first dilution step (1:100 dilution). This dilution is used for further dilution and spotting on agar.
# (§3) For evaluation of spore germination rate prepare a 1:30000 dilution based on the 1:100 dilution achieved by multiple automated dilution (pipetting robot, 96 well plate). Afterwards 12×12 cm agar plates are taken and spotted with 10 times […] of each sample using an automated 12-Channel pipet. Wait until liquid is soaked up by agar and transfer agar plate to an incubator and incubate at 25° C. for 17 hours. Open the plate and place it under the microscope. Randomly choose one area per spot and record the number of germinated and non-germinated spores that are within the designated field. At least 200 spores per sample need to be evaluated. If needed count more than one field per spot.
# [2] = tested on: Beauveria Bassiana spores; assay: spore viability (germination rate on agar) of Beauveria bassiana spores in carrier fluid after storage at 30° C.; assay type: cell-based
# Description: as §1, with “1.5 g” for “3 g”, “of Beauveria Bassiana” for “of P. lilacinum strain 251”, “spoon. 13.5” for “spoon. 12”
# as §2
# as §3, with “1:15000” for “1:30000”, “20°” for “25°”
# [3] = tested on: Isaria fumosorosea spores; assay: spore viability of Isaria fumosorosea spores in carrier fluid after storage at 30° C., Method 1 (germination on agar); assay type: cell-based
# Description: as §1, with “Method 1: 1.5 g” for “3 g”, “of Isaria fumosorosea” for “of P. lilacinum strain 251”, “spoon. 13.5” for “spoon. 12”
# as §2
# For evaluation of spore germination rate a 1:15000 dilution based on the 1:100 dilution achieved by multiple automated dilution (pipetting robot, 96 well plate) was prepared. Afterwards 12×12 cm agar plates were taken and spotted with 10 times 5 μL of each sample using an automated 12-Channel pipet. After all liquid is soaked up by agar the agar plates were incubated at 23° C. for 16 hours.
# [4] = tested on: Penicillium bilaii (ATCC 20851) spores; assay: spore viability (germination rate on agar) of Penicillium bilaii spores in carrier fluid after storage at 30° C.; assay type: cell-based
# Description: as §1, with “1.5 g” for “3 g”, “of Penicillium bilaii (ATCC 20851)” for “of P. lilacinum strain 251”, “spoon. 13.5” for “spoon. 12”
# as §2
# as §3, with “1:15000” for “1:30000”, “20°” for “25°”
# [5] = tested on: Isaria fumosorosea spores; assay: spore viability of Isaria fumosorosea spores in carrier fluid after storage, Method 2 (flow cytometry); assay type: cell-based
# Description: Method 2: 0.5 g of Isaria fumosoresea pure spore powder were transferred into an Erlenmeyer flask using a sterile spoon. 24.5 mL of fluid were dispersed using Ultra-Turrax (IKA; Type T 25 D) for 1 min at 3,000 rpm. After this, 2.0 mL were transferred in 20 sample bottles (Wheaton Serum vial, Type I) leaving little headspace and closed tight using crimpneck caps (Macherey—Nagel type N 13). Afterwards all sample bottles were transferred to an incubator set at 30° C. and stored for a given time.
# In regular intervals a sample was retrieved from the storage location and analyzed for spore viability. For this purpose, the original samples were thoroughly homogenized. Aliquots of 0.5 g of each sample were transferred into 100 mL-Erlenmeyer flask. The flasks were filled up to 50 g using a sterile aqueous solution containing 0.1% Break Thru® 5240 (Evonik, Industries) and homogenized on a magnetic stirrer (Thermo Fisher Scientific: Cimarec™) at least for 15 min with 750 rpm to achieve the first dilution step (1:100 dilution). This dilution was used for further dilution.
# Not all samples mixed well or mixed at all in 0.1% Break Thru 5240. For these samples, 500 μL Neo-wett (Kwizda Agro GmbH) and/or a small amount (knife tip) Metaupon®-OMT (LEUNA Tenside GmbH) were also added to the aqueous solution.
# After homogenization 1 mL were transferred into a 1.5 mL tube and were centrifuged for 15 min at 14,000 rpm (Thermo Fisher Scientific, Type Megafuge 8R). The supernatant (=upper phase) was discarded by using a pipette. The tubes were filled up to 1 mL using a sterile aqueous solution containing 0.1% Neo-wett and homogenized by vortexing.
# To assess fungal viability, a method based on flow cytometry was used.
# [6] = P. lilacinum strain 251 in the liquid, day 1
# [7] = I. fumosorosea, Method 1, day 1
# [8] = Method 1, storage at 30° C., 27 d
# [9] = Method 1, storage at 30° C., 210 d
Compound,"spore viability [%] at day 1 [1, 6]","spore viability [%] after 2 w (12-15 d) ([1]; storage at 30° C., 12-15 d)","spore viability [%] after 1 m (27-28 d) ([1]; storage at 30° C., 27-28 d)","spore viability [%] after 2 m (51-55 d) ([1]; storage at 30° C., 51-55 d)","spore viability [%] at day 1 ([2]; Beauveria bassiana, day 1)","spore viability [%] after 5 w (35 d) ([2]; storage at 30° C., 35 d)","spore viability [%] at day 1 [3, 7]","spore viability [%] after 1 m (27 d) [3, 8]","spore viability [%] after 7 m (210 d) [3, 9]",spore viability [%] after 1 m (27-28 d) [1],spore viability [%] after 2 m (51-55 d) [1],spore viability [%] after 2 w (12-15 d) [1],spore viability [%] at day 1 [1],spore viability [%] after 1 m (27 d) [5],spore viability [%] after 2 w (~14 d) [5],spore viability [%] at day 1 [5],spore viability [%] after 1 m (27 d) [3],spore viability [%] at day 1 [3],spore viability [%] after 7 m (210 d) [1],spore viability [%] 3 m@30° C. (83-85 d) [4],other results
"CCCCOCCOCCO [Butylcarbitol, diethylenglycol monobutylether, reference compound]",92.7%,62.1%,10.8%,3.2%,53.3%,0.8%,19.1%,0.5%,2.4%,,,,,,,,,,,,"spore viability [%] after 7 m (210 d) ([1]; storage at 30° C., 210 d): 0.6%; decline in spore viability at day 1 and after storage ([1]; text summary of Table I, fluids not within the scope of the invention): steep decline in spore viability; decline in spore viability after storage under given conditions ([2]; Table III, fluids not within the scope of the invention): steep decline in spore viability"
"COC(C)COC(C)COC(C)CO (stereo not drawn) [Dowanol TPM, Tripropylene Glycol monomethyl ether]",85.4%,94.3%,95.6%,84.5%,63.9%,15.5%,88.0%,65.4%,52.6%,,,,,,,,,,,,"spore viability [%] initial (1-2 d) ([4]; Penicillium bilaii, 1-2 d): 67.2%; spore viability [%] 6 w@30° C. (41-43 d) ([4]; storage at 30° C., 41-43 d): 7.6%; spore viability [%] 3 m@30° C. (83-85 d) ([4]; storage at 30° C., 83-85 d): 2.8%; spore viability [%] at day 1 ([5]; I. fumosorosea, Method 2, day 1): 82.0%; spore viability [%] after 1 m (27 d) ([5]; Method 2, storage at 30° C., 27 d): 59.0%; spore viability [%] after 2 w (14 d) ([2]; storage at 30° C., 14 d): 19.0%"
Polyethyleneglycol-200 monooleate [Radiasurf 7402],,,,,,,,,,64.8%,34.7%,83.6%,96.7%,15.8%,20.5%,89.9%,11.6%,92.5%,,,spore viability [%] after 7 m (210 d) [3]: 1.1%
Polyethyleneglycol-400 dioleate [Radiasurf 7442],,,,,,,,,,98.2%,96.8%,96.5%,98.7%,66.3%,69.6%,87.4%,72.1%,89.4%,88.3%,76.5%,spore viability [%] 6 w@30° C. (41-43 d) [4]: 91%; spore viability [%] initial (1-2 d) [4]: 96.7%; spore viability [%] after 3 w (21 d) [2]: 33.2%; spore viability [%] at day 1 [2]: 85.9%
Polyethyleneglycol-400 monooleate [Radiasurf 7403],,,,,,,,,,98.9%,93.7%,98.3%,98.6%,92.0%,86.0%,89.0%,76.2%,94.0%,78.3%,61.8%,spore viability [%] 6 w@30° C. (41-43 d) [4]: 66.8%; spore viability [%] initial (1-2 d) [4]: 78.1%; spore viability [%] after 2 w (14 d) [2]: 77.3%; spore viability [%] after 5 w (35 d) [2]: 72.3%; spore viability [%] at day 1 [2]: 81.4%; spore viability after storage for 3w or longer at 30° C. [2]: ≥ 50%
